From PubChem BioAssay (NCI)
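Step 1: Grow cells in 96-well plates. Step 2: Expose to compound for 48 hours at 5 concentrations. Step 3: Interpolate endpoints linearly; if unreached, use highest concentration. TGI denotes the concentration required for complete inhibition of growth.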

Assays:
Assay in all cases: NCI tumour cell line growth inhibition, 48 h
786-0 renal = test system: 786-0 renal
A498 renal = test system: A498 renal
A549 NSCLC = test system: A549 NSCLC
ACHN renal = test system: ACHN renal
BT-549 breast = test system: BT-549 breast
CAKI-1 renal = test system: CAKI-1 renal
CCRF-CEM leukemia = test system: CCRF-CEM leukemia
COLO 205 colon = test system: COLO 205 colon
DU-145 prostate = test system: DU-145 prostate
EKVX NSCLC = test system: EKVX NSCLC
HCT-15 colon = test system: HCT-15 colon
HL-60(TB) leukemia = test system: HL-60(TB) leukemia
HOP-62 NSCLC = test system: HOP-62 NSCLC
HOP-92 NSCLC = test system: HOP-92 NSCLC
HS 578T breast = test system: HS 578T breast
HT29 colon = test system: HT29 colon
IGROV1 ovarian = test system: IGROV1 ovarian
KM12 colon = test system: KM12 colon
LOX IMVI melanoma = test system: LOX IMVI melanoma
M14 melanoma = test system: M14 melanoma
MALME-3M melanoma = test system: MALME-3M melanoma
MCF7 breast = test system: MCF7 breast
MDA-MB-231 breast = test system: MDA-MB-231 breast
MDA-MB-435 = test system: MDA-MB-435
MDA-N = test system: MDA-N
MOLT-4 leukemia = test system: MOLT-4 leukemia
NCI-H226 lung = test system: NCI-H226 lung
NCI-H23 lung = test system: NCI-H23 lung
NCI-H460 lung = test system: NCI-H460 lung
NCI-H522 lung = test system: NCI-H522 lung
NCI/ADR-RES ovarian = test system: NCI/ADR-RES ovarian
OVCAR-4 ovarian = test system: OVCAR-4 ovarian
OVCAR-5 ovarian = test system: OVCAR-5 ovarian
OVCAR-8 ovarian = test system: OVCAR-8 ovarian
PC-3 prostate = test system: PC-3 prostate
SF-268 CNS = test system: SF-268 CNS
SF-295 CNS = test system: SF-295 CNS
SF-539 CNS = test system: SF-539 CNS
SK-MEL-28 melanoma = test system: SK-MEL-28 melanoma
SK-MEL-5 melanoma = test system: SK-MEL-5 melanoma
SK-OV-3 ovarian = test system: SK-OV-3 ovarian
SN12C renal = test system: SN12C renal
SNB-19 CNS = test system: SNB-19 CNS
SNB-75 CNS = test system: SNB-75 CNS
SW-620 colon = test system: SW-620 colon
T-47D breast = test system: T-47D breast
TK-10 renal = test system: TK-10 renal
U251 CNS = test system: U251 CNS
UACC-257 melanoma = test system: UACC-257 melanoma
UACC-62 melanoma = test system: UACC-62 melanoma
UO-31 renal = test system: UO-31 renal
HCT-116 colon = test system: HCT-116 colon
K-562 leukemia = test system: K-562 leukemia
OVCAR-3 ovarian = test system: OVCAR-3 ovarian
RPMI-8226 leukemia = test system: RPMI-8226 leukemia
RXF 393 renal = test system: RXF 393 renal
SK-MEL-2 melanoma = test system: SK-MEL-2 melanoma
SR leukemia = test system: SR leukemia

COc1cc2c(cc1OC)-c1[nH]c3ccc(C#N)cc3c1CC(=O)N2
TGI (786-0 renal): > 100 µM
TGI (A498 renal): > 100 µM
TGI (A549 NSCLC): > 100 µM
TGI (ACHN renal): > 100 µM
TGI (BT-549 breast): > 100 µM
TGI (CAKI-1 renal): > 100 µM
TGI (CCRF-CEM leukemia): > 100 µM
TGI (COLO 205 colon): 10.6 µM
TGI (DU-145 prostate): > 100 µM
TGI (EKVX NSCLC): > 100 µM
TGI (HCT-15 colon): > 100 µM
TGI (HL-60(TB) leukemia): 7.45 µM
TGI (HOP-62 NSCLC): > 100 µM
TGI (HOP-92 NSCLC): > 100 µM
TGI (HS 578T breast): > 100 µM
TGI (HT29 colon): > 100 µM
TGI (IGROV1 ovarian): > 100 µM
TGI (KM12 colon): > 100 µM
TGI (LOX IMVI melanoma): > 33.6 µM
TGI (M14 melanoma): > 100 µM
TGI (MALME-3M melanoma): > 100 µM
TGI (MCF7 breast): > 100 µM
TGI (MDA-MB-231 breast): > 100 µM
TGI (MDA-MB-435): > 100 µM
TGI (MDA-N): > 90.6 µM
TGI (MOLT-4 leukemia): > 100 µM
TGI (NCI-H226 lung): > 100 µM
TGI (NCI-H23 lung): > 100 µM
TGI (NCI-H460 lung): > 100 µM
TGI (NCI-H522 lung): > 100 µM
TGI (NCI/ADR-RES ovarian): > 100 µM
TGI (OVCAR-4 ovarian): > 100 µM
TGI (OVCAR-5 ovarian): > 24.7 µM
TGI (OVCAR-8 ovarian): > 100 µM
TGI (PC-3 prostate): > 100 µM
TGI (SF-268 CNS): > 100 µM
TGI (SF-295 CNS): > 100 µM
TGI (SF-539 CNS): > 100 µM
TGI (SK-MEL-28 melanoma): > 100 µM
TGI (SK-MEL-5 melanoma): 28 µM
TGI (SK-OV-3 ovarian): > 100 µM
TGI (SN12C renal): > 100 µM
TGI (SNB-19 CNS): > 100 µM
TGI (SNB-75 CNS): > 100 µM
TGI (SW-620 colon): > 100 µM
TGI (T-47D breast): > 100 µM
TGI (TK-10 renal): > 100 µM
TGI (U251 CNS): > 100 µM
TGI (UACC-257 melanoma): > 100 µM
TGI (UACC-62 melanoma): > 100 µM
TGI (UO-31 renal): > 22.6 µM

CCOC(=O)c1cc(Sc2ccc(N)c(C(=O)OCC)c2)ccc1N
TGI (786-0 renal): > 100 µM
TGI (A498 renal): 72.1 µM
TGI (A549 NSCLC): > 100 µM
TGI (ACHN renal): > 100 µM
TGI (BT-549 breast): > 100 µM
TGI (CAKI-1 renal): > 100 µM
TGI (CCRF-CEM leukemia): > 100 µM
TGI (COLO 205 colon): > 100 µM
TGI (DU-145 prostate): > 100 µM
TGI (EKVX NSCLC): > 100 µM
TGI (HCT-116 colon): > 100 µM
TGI (HCT-15 colon): > 100 µM
TGI (HL-60(TB) leukemia): > 100 µM
TGI (HOP-62 NSCLC): 65.9 µM
TGI (HOP-92 NSCLC): > 100 µM
TGI (HS 578T breast): > 100 µM
TGI (HT29 colon): > 100 µM
TGI (IGROV1 ovarian): > 100 µM
TGI (K-562 leukemia): > 100 µM
TGI (KM12 colon): > 100 µM
TGI (M14 melanoma): > 100 µM
TGI (MALME-3M melanoma): > 100 µM
TGI (MCF7 breast): > 100 µM
TGI (MDA-MB-231 breast): > 100 µM
TGI (MDA-N): > 100 µM
TGI (MOLT-4 leukemia): > 100 µM
TGI (NCI-H226 lung): 44.7 µM
TGI (NCI-H23 lung): > 100 µM
TGI (NCI-H460 lung): > 100 µM
TGI (NCI-H522 lung): > 100 µM
TGI (NCI/ADR-RES ovarian): > 100 µM
TGI (OVCAR-3 ovarian): > 100 µM
TGI (OVCAR-4 ovarian): > 100 µM
TGI (OVCAR-5 ovarian): > 100 µM
TGI (OVCAR-8 ovarian): > 100 µM
TGI (PC-3 prostate): > 100 µM
TGI (RPMI-8226 leukemia): > 100 µM
TGI (RXF 393 renal): > 100 µM
TGI (SF-268 CNS): > 100 µM
TGI (SF-295 CNS): > 100 µM
TGI (SF-539 CNS): > 100 µM
TGI (SK-MEL-2 melanoma): > 100 µM
TGI (SK-MEL-28 melanoma): > 100 µM
TGI (SK-MEL-5 melanoma): > 100 µM
TGI (SK-OV-3 ovarian): > 100 µM
TGI (SN12C renal): 40.3 µM
TGI (SNB-19 CNS): > 100 µM
TGI (SNB-75 CNS): > 100 µM
TGI (SR leukemia): > 100 µM
TGI (SW-620 colon): > 100 µM
TGI (T-47D breast): > 100 µM
TGI (U251 CNS): > 100 µM
TGI (UACC-257 melanoma): > 100 µM
TGI (UACC-62 melanoma): > 100 µM
